In PubChem BioAssay (NCI) one finds TGI data, which are given here for 20 molecules.

Among the test systems are ACHN renal; HCC-2998 colon; HCT-116 colon; OVCAR-4 ovarian; OVCAR-5 ovarian; RXF 393 renal; SF-295 CNS; SF-539 CNS; U251 CNS; UACC-62 melanoma.
Experiment in all cases: growth of human tumour cells (NCI), 48 h

The structures appear in SMILES notation.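 These data come from cells grown in 96-well plates and exposed to compound for 48 hours at five concentrations. The concentration for full growth arrest is given as TGI.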

Turning to `O=C1CCCC1C(O)(C(F)(F)Cl)C(F)(F)Cl` (configuration not stated), the TGI in the test on ACHN renal, in the test with HCC-2998 colon, in the test with HCT-116 colon, with OVCAR-4 ovarian, with OVCAR-5 ovarian and with RXF 393 renal was above 10 µM each time. The TGI in the test with SF-295 CNS, with SF-539 CNS, with U251 CNS and with UACC-62 melanoma was above 10 µM each time.
For `COc1ccc(/C=C/C(=O)N[C@@H]2C(=O)N3[C@@H]2SC(C)(C)[C@@H]3C(=O)O)cc1OC`, the TGI in the test on ACHN renal, with HCC-2998 colon, with HCT-116 colon, in the test with OVCAR-4 ovarian, in the test with OVCAR-5 ovarian and with RXF 393 renal was above 100 µM in each case. In addition, the TGI in the test with SF-295 CNS, with SF-539 CNS, with U251 CNS and with UACC-62 melanoma was above 100 µM each time.
Consider `CCOC(=O)CCNC(=O)c1cc(C)cc2c1Oc1c(cc(C)cc1C(=O)NCCC(=O)OCC)S2`, for which the TGI is above 100 µM in the test on ACHN renal; above 100 µM in the test on HCC-2998 colon; above 100 µM in the test on HCT-116 colon; above 100 µM with OVCAR-4 ovarian; above 100 µM in the test with OVCAR-5 ovarian; 58 µM in the test with RXF 393 renal. The TGI in the test with SF-295 CNS, in the test with SF-539 CNS, with U251 CNS and in the test with UACC-62 melanoma was above 100 µM each time.
Take `CC(C)[Si](CC1=CCCCC12C(=O)N(COCC[Si](C)(C)C)c1ccccc12)(C(C)C)C(C)C` (configuration not stated): the TGI in the test with ACHN renal is above 100 µM; in the test on HCC-2998 colon, above 100 µM; in the test on OVCAR-4 ovarian it was above 100 µM; in the test with OVCAR-5 ovarian, 80.9 µM; in the test on RXF 393 renal, 54.2 µM; in the test on SF-295 CNS, above 100 µM. The TGI in the test with SF-539 CNS, in the test on U251 CNS and with UACC-62 melanoma was above 100 µM in each case.
`CC1(C)C/C=C\CCC(O)C(O)CCC(C)(C)C1=O` (configuration not stated): the TGI with ACHN renal, in the test with HCC-2998 colon, in the test on HCT-116 colon, with OVCAR-4 ovarian, in the test with OVCAR-5 ovarian and in the test with RXF 393 renal was above 100 µM throughout. Further, the TGI in the test on SF-295 CNS, in the test on SF-539 CNS, with U251 CNS and with UACC-62 melanoma was above 100 µM throughout.
For `CNC(=S)c1nnsc1N`, the TGI in the test on ACHN renal, in the test with HCC-2998 colon, in the test on HCT-116 colon, in the test with OVCAR-4 ovarian, in the test on OVCAR-5 ovarian and in the test with RXF 393 renal was above 100 µM each time. Also, the TGI in the test with SF-295 CNS, with SF-539 CNS, in the test on U251 CNS and with UACC-62 melanoma was above 100 µM each time.
Take `Cc1c(OCc2cccc3ccccc23)ccc2c(=O)cc(S)oc12`: the TGI is above 100 µM in the test with ACHN renal; above 100 µM with HCC-2998 colon; 77.5 µM in the test with HCT-116 colon; above 100 µM with OVCAR-4 ovarian; above 100 µM with OVCAR-5 ovarian; above 100 µM in the test with RXF 393 renal. The TGI is 88.7 µM in the test on SF-295 CNS, 65.2 µM in the test with SF-539 CNS, above 100 µM in the test on U251 CNS and 73.3 µM in the test with UACC-62 melanoma.
As to `COc1ccc2oc(=O)c(-c3nc4ccccc4s3)cc2c1`, the TGI was 12.7 µM with ACHN renal; above 100 µM in the test with HCC-2998 colon; 37.6 µM in the test on HCT-116 colon; 53.6 µM with OVCAR-4 ovarian; above 100 µM with OVCAR-5 ovarian; 31 µM in the test with RXF 393 renal. In addition, the TGI with SF-295 CNS was above 57.3 µM; in the test on SF-539 CNS, 13.7 µM; with U251 CNS it was above 49.6 µM; with UACC-62 melanoma, above 100 µM.
For `O=C1CN2CCN(CC2)CC(=O)Nc2ccc(cc2)S(=O)(=O)c2ccc(cc2)NC(=O)CN2CCN(CC2)CC(=O)Nc2ccc(cc2)S(=O)(=O)c2ccc(cc2)N1`, the TGI is above 100 µM in the test on ACHN renal; above 100 µM with HCC-2998 colon; 71.9 µM in the test on HCT-116 colon; above 100 µM in the test with OVCAR-4 ovarian; 67.7 µM in the test on OVCAR-5 ovarian; above 100 µM with RXF 393 renal. In addition, the TGI in the test with SF-295 CNS was above 100 µM; in the test on SF-539 CNS, 49.2 µM; with U251 CNS, above 94.3 µM; in the test with UACC-62 melanoma it was above 67.9 µM.
Consider `Cc1csc(CP(=O)(OC(C)C)OC(C)C)n1`, for which the TGI with ACHN renal, with HCC-2998 colon, in the test on HCT-116 colon, in the test with OVCAR-4 ovarian, in the test with OVCAR-5 ovarian and in the test with RXF 393 renal was above 100 µM in each case. Also, the TGI in the test with SF-295 CNS, with SF-539 CNS and in the test with U251 CNS was above 100 µM in each case.
For `CCOC(=O)C1=CN(Cc2ccccc2)C2ON=C(c3ccc(Cl)cc3)C2C1` (configuration not stated), the TGI in the test with ACHN renal was above 65.2 µM; in the test on HCC-2998 colon, above 100 µM; in the test with HCT-116 colon it was above 61.9 µM; in the test with OVCAR-4 ovarian, above 77.8 µM; in the test on OVCAR-5 ovarian it was above 68.7 µM; in the test on RXF 393 renal, above 67.6 µM. Moreover, the TGI in the test with SF-295 CNS is above 67 µM; in the test with SF-539 CNS, above 68.2 µM; with U251 CNS, 30.7 µM; in the test with UACC-62 melanoma it was above 69.2 µM.
`O=C(CCCN1CCC(Nc2ccc(F)cc2)(c2nnnn2C2CCCCC2)CC1)c1ccc(F)cc1`: the TGI in the test on ACHN renal was 28.6 µM; with HCC-2998 colon, above 100 µM; in the test on HCT-116 colon it was 26.1 µM; in the test with OVCAR-4 ovarian it was 25.5 µM; with OVCAR-5 ovarian, 29.7 µM; in the test with RXF 393 renal, 25.5 µM. In addition, the TGI with SF-295 CNS was determined as 40.9 µM; with SF-539 CNS it was 30.5 µM; with U251 CNS, 29.2 µM; with UACC-62 melanoma, 11.2 µM.
In the case of `COc1ccc(C2=Nn3c(C)nnc3S/C2=C\c2ccc(-c3ccc([N+](=O)[O-])cc3)o2)cc1`, the TGI in the test on ACHN renal was 25.3 µM; with HCC-2998 colon it was 19.9 µM; with HCT-116 colon, 26.1 µM; with OVCAR-4 ovarian it was above 100 µM; with OVCAR-5 ovarian, 43 µM; in the test on RXF 393 renal it was 22.8 µM. Besides, the TGI was above 100 µM with SF-295 CNS, 25.6 µM in the test on SF-539 CNS, 45.8 µM in the test on U251 CNS and 28.3 µM in the test on UACC-62 melanoma.
Turning to `O=Cc1ccc(Oc2c3ccccc3nc3ccccc23)cc1`, the TGI in the test with ACHN renal stood at 14 µM; with HCC-2998 colon, 28.6 µM; in the test with HCT-116 colon, 4.9 µM; with OVCAR-4 ovarian it was 16.3 µM; with OVCAR-5 ovarian, 16.7 µM; with RXF 393 renal, 21.5 µM. In addition, the TGI was determined as 55.4 µM with SF-295 CNS, 4.12 µM in the test on SF-539 CNS, 21.9 µM in the test on U251 CNS and 2.74 µM in the test on UACC-62 melanoma.
Turning to `O=[N+]([O-])c1cc(C2ON=C(c3ccccc3)N2C23CC4CC(CC(C4)C2)C3)ccc1Cl` (configuration not stated), the TGI in the test on ACHN renal, in the test with HCC-2998 colon, with HCT-116 colon, in the test on OVCAR-4 ovarian, in the test on OVCAR-5 ovarian and in the test with RXF 393 renal was above 100 µM throughout. The TGI in the test on SF-295 CNS, in the test with SF-539 CNS and in the test on U251 CNS was above 100 µM throughout.
For `CSc1cc(Cl)c(C)cc1S(=O)(=O)NC(=O)NNc1cnc2ccccc2n1`, the TGI in the test on ACHN renal, with HCC-2998 colon, with HCT-116 colon, with OVCAR-4 ovarian, in the test on OVCAR-5 ovarian and with RXF 393 renal was above 100 µM in each case. In addition, the TGI with SF-295 CNS, with SF-539 CNS and in the test with U251 CNS was above 100 µM throughout.
Regarding `O=[N+]([O-])c1cnccc1-n1nnc2ccccc21`, the TGI with HCC-2998 colon was 51.6 µM; in the test on HCT-116 colon, above 100 µM; with OVCAR-4 ovarian, above 60.5 µM; with OVCAR-5 ovarian, 73.4 µM; with RXF 393 renal it was 46.8 µM; in the test with SF-295 CNS, above 74.7 µM. Also, the TGI in the test on SF-539 CNS is 45.8 µM; in the test with U251 CNS, above 81.8 µM; in the test with UACC-62 melanoma, 33.4 µM.
In the case of `O=c1n(CC2CO2)c2ccccc2n1CC1CS1` (configuration not stated), the TGI in the test on ACHN renal, with HCC-2998 colon, in the test on HCT-116 colon, in the test on OVCAR-4 ovarian, in the test with OVCAR-5 ovarian and with RXF 393 renal was above 100 µM each time. Further, the TGI with SF-295 CNS, in the test with SF-539 CNS and in the test with UACC-62 melanoma was above 100 µM throughout.
Consider `COc1ccc(-c2nc3ccccc3c(=O)[nH]2)cc1OC`, for which the TGI in the test on HCC-2998 colon is above 100 µM; with HCT-116 colon, above 100 µM; in the test on OVCAR-4 ovarian, above 100 µM; with OVCAR-5 ovarian, above 100 µM; in the test with RXF 393 renal, 68.1 µM; in the test on SF-295 CNS, above 100 µM. The TGI in the test with SF-539 CNS is 80.5 µM; in the test on U251 CNS, 80.5 µM; with UACC-62 melanoma, above 100 µM.
`CCOC(=O)C(C(=O)OCC)C(=S)NC1OC(COC(C)=O)C(OC(C)=O)C(OC(C)=O)C1OC(C)=O` (configuration not stated): the TGI in the test on HCC-2998 colon, with HCT-116 colon, in the test with OVCAR-4 ovarian, with OVCAR-5 ovarian, in the test with RXF 393 renal and in the test on SF-295 CNS was above 100 µM in each case. Also, the TGI in the test on SF-539 CNS, in the test with U251 CNS and with UACC-62 melanoma was above 100 µM in each case.
